Test system: rat salivary gland (submandibular gland)
Test: Intraductal transfection of rat salivary gland with pCMV.FOX.Luc-2, luciferase assay
Assay type: in vivo
Protocol: Nucleic acid/transition metal enhancer mixtures were prepared by sequentially adding deionized water or a buffered solution, DNA, and a desired transition metal enhancer to a polystyrene tube with mixing. “Free” (i.e., “Naked”) DNA controls were prepared by sequentially adding DNA to water or a buffered solution
Male Sprague-Dawley rats (260-280 g) were fasted the night prior to treatment. After administration of the anesthesia (see Section 6.1.3), both right and left salivary gland ducts (specifically, Wharton's duct) were cannulated with fine polyurethane tubing (i.d. 0.005″) and cemented into the desired location. Atropine was then administered subcutaneously (0.5 mg/kg) and, after eight minutes, 50 μl of the nucleic acid/transition metal enhancer mixture was injected, infused, instilled or administered at the ductal orifice or directly into the duct at any point along its length. See Goldfine, Nature Biotechnology 15:1378, 1997.
Regardless of whether a liposome/transition metal/nucleic acid mixture or a nucleic acid/transition metal enhancer mixture was delivered, the tubing and mixture was kept in place for ten additional minutes after application of the mixture prior to removal. At 48 hours post atropine administration, the rats were anesthetized by intraperitoneal injection of pentobarbital (50 mg/kg). The right and left submandibular glands were surgically removed, and the tissues were assayed for any observable reporter gene (luciferase of hGH) expression using the methods described below.
The presently claimed invention describes a new method using a combination of a transition metal enhancer and a nucleic acid of interest for gene delivery. The present invention provides a method which may enhance gene expression by improving the efficiency of gene delivery. This change in gene expression can be quantitated using various assays, such as the luciferase assay. de Wet et al., Molec. Cell Biol. 7:725, 1987. In various experiments described herein, the right and left submandibular glands were removed from the male Sprague-Dawley rats at 48 hours post administration of the pCMV.FOX.Luc-2 containing solution. In additional experiments other organs, such as the rat lungs, were used.
In experiments in which submandibular glands were tested, the amount of luciferase present in the right and left submandibular gland of each male Sprague-Dawley rat was measured independently and treated as separate, individual experiments (e.g., trials) because the amount of luciferase expressed by one submandibular gland is independent of the amount of luciferase expressed in the other submandibular gland. Therefore, each submandibular gland was independently lysed in lysis buffer (1.0 ml buffer per 0.1 g tissue) to create a lysis homogenate. The lysis buffer contained 100 mM K2PO4 pH 7.0, 1 mM dithiothreitol, and 1% Triton X-100. A 100 μl aliquot of lysis homogenate from each submandibular gland was analyzed for luciferase activity (de Wet et al., Molec. Cell Biol. 7:725, 1987) using a Monolight 2010 luminometer (Analytical Luminescence Laboratories). Accordingly, luciferase light emissions from each aliquot of the lysis homogenate were measured over a ten second period.
Activity was expressed as relative light units, values collectively representing the assay conditions, luciferase concentration, luminometer photomultiplier tube sensitivity and background. Using well known techniques, the luciferase light units may be converted, for example, to picograms of luciferase protein. See, e.g., Felgner et al., U.S. Pat. No. 5,580,899 at Example 13. All experiments were performed in duplicate. In experiments using submandibular glands, data from each individual submandibular gland lysis homogenate is reported as a single trial.

[Cl][Cu] [Cu, cuprous chloride]
Average relative light units (Table 3, metal chloride 0.6 mM, 32 μg DNA in 50 μl, Tris-HCl/EDTA, 48 hours, eight glands): 17667 relative light units
Average relative light units (Table 3, metal chloride 0.9 mM, 32 μg DNA in 50 μl, Tris-HCl/EDTA, 48 hours, eight glands): 42204 relative light units
Average relative light units (Table 3, metal chloride 1.2 mM, 32 μg DNA in 50 μl, Tris-HCl/EDTA, 48 hours, eight glands): 17194 relative light units

O=S(=O)([O-])[O-].[Zn+2] [ZnSO4, zinc sulfate]
Average relative light units (Table 6, zinc 3.6 mM, 128 μg DNA in 50 μl, 48 hours): 355676 relative light units

[Cl][Ni][Cl] [Ni, nickel chloride]
Average relative light units (Table 2, metal chloride 0.3 mM, 32 μg DNA in 50 μl, 48 hours, eight glands): 18391 relative light units
Average relative light units (Table 2, metal chloride 0.9 mM, 32 μg DNA in 50 μl, 48 hours, eight glands): 65121 relative light units

[Cl][Co][Cl] [CoCl2, cobalt chloride]
Average relative light units (Table 4, CoCl2 0.3 mM, 32 μg DNA in 50 μl, 48 hours): 37219 relative light units
Average relative light units (Table 4, CoCl2 0.9 mM, 32 μg DNA in 50 μl, 48 hours): 44926 relative light units

CC(=O)[O-].CC(=O)[O-].[Zn+2] [Zn(CH3CO2)2, zinc acetate]
Average relative light units (rat, in vivo): 309965 relative light units

— patent publication US6624149B2, “Method for nucleic acid transfection of cells” (Genteric, Inc., priority 2000, dated 2003)
